Assay results from ChEMBL document CHEMBL1649194, “Pharmacokinetics of intracameral voriconazole injection” (Antimicrob Agents Chemother, 2009).
One block for each compound: values may come before it.

Key:
[1] = Half life in New Zealand White rabbit eye administered as intracameral injection; type: ADME, tissue-based, Oryctolagus cuniculus; conditions: topical or ocular
[2] = Half life in human eye administered as intracameral injection; type: ADME, tissue-based
[3] = Drug level in New Zealand White rabbit eye aqueous humor at 25 ug/25 ul administered as intracameral injection measured after 60 mins; type: ADME, tissue-based, Oryctolagus cuniculus; conditions: topical or ocular, read-out: Drug uptake
[4] = Drug level in New Zealand White rabbit eye aqueous humor at 25 ug/25 ul administered as intracameral injection measured after 30 mins; type: ADME, tissue-based, Oryctolagus cuniculus; conditions: topical or ocular, read-out: Drug uptake
[5] = Drug level in New Zealand White rabbit eye aqueous humor at 25 ug/25 ul administered as intracameral injection measured after 15 mins; type: ADME, tissue-based, Oryctolagus cuniculus; conditions: topical or ocular, read-out: Drug uptake
[6] = Drug level in New Zealand White rabbit eye aqueous humor at 25 ug/25 ul administered as intracameral injection measured after 180 mins; type: ADME, tissue-based, Oryctolagus cuniculus; conditions: topical or ocular, read-out: Drug uptake
[7] = Half life in rabbit serum; type: ADME, cell-free, Oryctolagus cuniculus
[8] = Half life in human serum; type: ADME, cell-free
[9] = Drug level in New Zealand White rabbit eye aqueous humor at 25 ug/25 ul administered as intracameral injection measured after 90 mins; type: ADME, tissue-based, Oryctolagus cuniculus; conditions: topical or ocular, read-out: Drug uptake
[10] = Drug level in New Zealand White rabbit eye aqueous humor at 25 ug/25 ul administered as intracameral injection measured after 150 mins; type: ADME, tissue-based, Oryctolagus cuniculus; conditions: topical or ocular, read-out: Drug uptake
[11] = Drug level in New Zealand White rabbit eye aqueous humor at 25 ug/25 ul administered as intracameral injection measured after 45 mins; type: ADME, tissue-based, Oryctolagus cuniculus; conditions: topical or ocular, read-out: Drug uptake
[12] = Drug level in New Zealand White rabbit eye aqueous humor at 25 ug/25 ul administered as intracameral injection measured after 120 mins; type: ADME, tissue-based, Oryctolagus cuniculus; conditions: topical or ocular, read-out: Drug uptake
[13] = Half life in New Zealand White rabbit eye aqueous humor at 25 ug/25 ul administered as intracameral injection; type: ADME, tissue-based, Oryctolagus cuniculus, Aqueous humor of eyeball; conditions: topical or ocular

half-life [1]: 0.58 h
Compound: NCC[C@H](O)C(=O)N[C@@H]1C[C@H](N)[C@@H](O[C@H]2O[C@H](CN)[C@@H](O)[C@H](O)[C@H]2O)[C@H](O)[C@H]1O[C@H]1O[C@H](CO)[C@@H](O)[C@H](N)[C@H]1O [AMIKACIN]

Compound: GENTAMICIN
t1/2 ([2]; topical_or_ocular): 0.85 h

Compound: C[C@@H](c1ncncc1F)[C@](O)(Cn1cncn1)c1ccc(F)cc1F [VORICONAZOLE]
concentration at 1 h [3]: 5100 ng/mL
concentration at 0.5 h [4]: 13500 ng/mL
concentration at 0.25 h [5]: 25400 ng/mL
concentration at 3 h [6]: 150 ng/mL
half-life [7]: 2.5 h
half-life [8]: 6.5 h
concentration at 1.5 h [9]: 2670 ng/mL
half-life ([2]; eye, topical or ocular): 3.27 h
concentration at 2.5 h [10]: 390 ng/mL
concentration at 0.75 h [11]: 7730 ng/mL
concentration at 2 h [12]: 1400 ng/mL
half-life [13]: 0.367 h
